Results published in patent US7071231B2, “Naphthalene ureas as glucose uptake enhancers” (Telik, Inc., priority 1999, dated 2006).

Legend:
[1] = molecular target: T1, β-kinase domain of the human insulin receptor (CKD) (Homo sapiens, UniProt P06213); experiment: 32P-cytoplasmic kinase domain (CKD) autophosphorylation assay; assay type: biochemical; conditions: phosphorylation of CKD expressed as % of the vehicle level; 10 minutes at room temperature; compound concentration not given
T1 construct: The complete β-kinase domain of the human insulin receptor (CKD) was expressed in, and purified from, baculovirus; made in house
Method in brief: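 Baculovirus-expressed CKD (4.0 μg/ml) in 29 mM HEPES pH 7.6, 10 mM MgCl2, 2 mM MnCl2 with 50 μM ATP plus ^32P-ATP, 1% DMSO, 10 min at room temperature. EDTA stop, SDS-PAGE, CKD-band radioactivity by phosphorimaging or scintillation counting; activity as % of vehicle phosphorylation.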

[2] = test system: platelet-derived growth factor (PDGF) receptor; experiment: Selectivity: PDGF receptor phosphorylation; assay type: cell-based; conditions: in the absence or presence of PDGF
db/db mouse = experiment: Blood glucose level determination in db/db mouse; assay type: in vivo; conditions: compound intraperitoneally, with or without 0.01U insulin s.c.; 0-4 hr (FIGS. 8 and 9)
Protocol: Blood Glucose Level Determination in db/db Mouse.
An accepted model for Type 2 diabetes which has been used to establish the potential anti-diabetic activity of compounds is the db/db mouse. Seven to 9 week old male db/db mice (Jackson Laboratories, Bar Harbor, Me.), were used to the study of the effects of compounds on blood glucose levels. Animals were kept in a 12 h/12 h light/dark cycle, and experiments were initiated immediately after the dark period (7:00 a.m.). Food was removed at this time and returned after the final blood glucose measurement was taken.
Insulin (0.5U/ml, Humulin R, Catalog HI-201, Lilly, Indianapolis, Ind.) was prepared by diluting 100U/mL stock insulin 1:200 with PBS (phosphate buffered saline, Gibco, BRL). Compounds were prepared in a vehicle of either PBS or 20% DMSO in PBS.
Five to 10 animals (average weight 40–50 g) were used in each treatment condition. The animals were injected subcutaneously with either 0.01U insulin in PBS or PBS alone, followed by 0.1 mL of compound or its vehicle delivered intraperitoneally. Blood samples were taken 0 min, 15 min, 30 min, 1 hr, 2 hr and 4 hr after the administration of the drug or vehicle by tail bleeding. Glucose measurements were made with a Glucometer and Glucose strips (Bayer). […]

ob/ob mouse = experiment: Blood glucose, insulin and triglycerides in the ob/ob mouse model of Type 2 diabetes; assay type: in vivo; conditions: ob/ob mice, single dose 30 mg/kg, p.o.
Protocol: Lowering of Blood Glucose, Insulin and Triglycerides in the ob/ob Mouse Model of Type 2 Diabetes Another standard model of Type 2 diabetes is the ob/ob mouse. Male ob/ob mice (C57 BL/6J-ob) were housed 3–5 to a cage with free access to standard rodent chow pellets. After one week, they were given a single dose of Compound 15 (30 mg/kg, p.o.). Compound 15 produced a 13% decrease in blood glucose levels, a 42% decrease in plasma insulin levels, and a 15% decrease in plasma triglyceride levels. The concomitant reduction of plasma glucose and insulin levels are consistent with a reduction in insulin resistance.

insulin receptor = molecular target: T2, insulin receptor (Rattus norvegicus, UniProt P15127); experiment: Rat muscle insulin receptor phosphorylation after oral dose; assay type: in vivo; conditions: STZ/HFD rats, oral dose 30 mg/kg, muscle samples 0.5-6 hr (FIG. 12)
T2 construct: from tissue; host or cells: rat muscle (in vivo oral dosing)
Protocol: Rat Muscle Phosphorylation
Muscle is a particularly important tissue for taking up glucose from the blood in response to insulin receptor stimulation. Activation of muscle insulin receptors is, therefore, an important factor in the control of blood glucose levels. STZ/HFD rats prepared as in Example 18 were given an oral dose of Compound 15 (30 mg/kg), and muscle samples were harvested at different time points (0.5 hr, 1 hr, 2 hr, 3 hr, 4 hr, 6 hr) and homogenized in extraction buffer (50 mM Tris.HCl pH 7.4, 150 mM NaCl, 0.25% sodium deoxycholate, 1% NP40, 1 mM EGTA, 1 mM PMSF, 1 mM Na3VO4, 1 mM NaF, 1 ug/ml each of Aprotinin, Leupeptin and Pepstatin). The tissue homogenate was centrifuged at 12K for 30 min at 4° C., and the supernatants were saved. An equal protein amount from each sample was immunoprecipitated with anti-insulin receptor antibody for 2 hr at 4° C., followed by another 1 hr incubation with Protein G-Agarose beads. The immunecomplexes were washed three times with the extraction buffer, and the samples were boiled in 2× SDS-PAGE loading buffer for 5 min at 100° C. The samples were resolved in a 7.5% SDS-PAGE along with Amersham rainbow marker protein as a molecular weight standard. […]

male db/db mice = experiment: Acute toxicity in db/db mice; assay type: in vivo; conditions: i.p., 300 mg/kg in PBS
Protocol: Compound 15 was administered in PBS vehicle to male db/db mice (i.p.) and male CD rats (p.o.) at 300 mg/kg, which is approximately 10 times its effective dose.

CYP3A4 = CYP3A4 (Homo sapiens, UniProt P08684); experiment: P450 interactions: CYP3A4 inhibition; assay type: in vitro ADME; conditions: human cytochromes P450
Excerpt: A major pathway for elimination of drugs from the body, which may limit their effectiveness, is the cytochrome P450 system of the liver.

T1 sequence (P06213 980-1382 limits assumed): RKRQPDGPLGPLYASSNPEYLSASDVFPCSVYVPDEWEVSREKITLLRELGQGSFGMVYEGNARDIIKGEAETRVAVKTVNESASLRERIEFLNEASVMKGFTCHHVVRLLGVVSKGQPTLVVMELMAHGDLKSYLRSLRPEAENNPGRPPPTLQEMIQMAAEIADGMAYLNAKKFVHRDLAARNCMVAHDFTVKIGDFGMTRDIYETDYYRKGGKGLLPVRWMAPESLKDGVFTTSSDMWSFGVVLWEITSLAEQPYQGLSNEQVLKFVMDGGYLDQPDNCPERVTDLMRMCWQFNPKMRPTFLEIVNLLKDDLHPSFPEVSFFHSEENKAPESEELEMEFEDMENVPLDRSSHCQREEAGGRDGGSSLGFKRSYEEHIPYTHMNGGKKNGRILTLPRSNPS
T2 sequence (P15127 764-1383 limits assumed): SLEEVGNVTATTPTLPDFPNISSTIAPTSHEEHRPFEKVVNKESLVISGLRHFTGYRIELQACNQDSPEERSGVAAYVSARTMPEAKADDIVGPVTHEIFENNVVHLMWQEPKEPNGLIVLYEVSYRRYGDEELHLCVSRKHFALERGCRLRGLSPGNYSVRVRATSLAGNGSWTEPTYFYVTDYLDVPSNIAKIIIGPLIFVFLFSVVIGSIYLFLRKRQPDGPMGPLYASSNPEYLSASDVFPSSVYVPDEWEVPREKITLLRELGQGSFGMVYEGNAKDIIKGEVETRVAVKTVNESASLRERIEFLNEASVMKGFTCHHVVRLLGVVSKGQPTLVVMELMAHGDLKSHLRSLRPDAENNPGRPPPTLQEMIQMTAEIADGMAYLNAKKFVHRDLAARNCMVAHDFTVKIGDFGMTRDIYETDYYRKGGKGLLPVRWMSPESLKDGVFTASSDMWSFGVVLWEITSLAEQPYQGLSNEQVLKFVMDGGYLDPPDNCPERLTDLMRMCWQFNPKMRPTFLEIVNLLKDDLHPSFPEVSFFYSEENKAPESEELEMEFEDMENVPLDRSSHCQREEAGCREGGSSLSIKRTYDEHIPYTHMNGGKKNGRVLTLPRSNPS
T2 sequence (P15127 27-759 partner limits assumed): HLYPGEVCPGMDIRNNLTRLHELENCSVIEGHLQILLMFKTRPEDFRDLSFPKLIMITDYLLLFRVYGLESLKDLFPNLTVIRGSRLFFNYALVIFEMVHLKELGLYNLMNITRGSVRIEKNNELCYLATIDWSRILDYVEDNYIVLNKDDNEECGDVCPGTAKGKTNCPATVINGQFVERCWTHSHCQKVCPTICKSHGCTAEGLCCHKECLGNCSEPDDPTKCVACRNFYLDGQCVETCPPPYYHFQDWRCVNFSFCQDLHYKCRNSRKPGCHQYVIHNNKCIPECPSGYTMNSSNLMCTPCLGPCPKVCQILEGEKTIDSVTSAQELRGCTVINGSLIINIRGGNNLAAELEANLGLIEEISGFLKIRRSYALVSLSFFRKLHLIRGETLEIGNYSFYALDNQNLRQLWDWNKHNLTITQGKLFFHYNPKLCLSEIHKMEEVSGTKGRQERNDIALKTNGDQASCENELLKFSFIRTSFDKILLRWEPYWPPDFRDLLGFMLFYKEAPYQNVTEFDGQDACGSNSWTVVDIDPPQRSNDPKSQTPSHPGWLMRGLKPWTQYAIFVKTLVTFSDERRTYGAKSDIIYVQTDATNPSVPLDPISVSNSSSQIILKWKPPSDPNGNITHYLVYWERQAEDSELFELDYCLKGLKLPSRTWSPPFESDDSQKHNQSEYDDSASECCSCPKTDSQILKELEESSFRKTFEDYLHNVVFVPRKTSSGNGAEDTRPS
Chain of CYP3A4 (P08684 whole entry): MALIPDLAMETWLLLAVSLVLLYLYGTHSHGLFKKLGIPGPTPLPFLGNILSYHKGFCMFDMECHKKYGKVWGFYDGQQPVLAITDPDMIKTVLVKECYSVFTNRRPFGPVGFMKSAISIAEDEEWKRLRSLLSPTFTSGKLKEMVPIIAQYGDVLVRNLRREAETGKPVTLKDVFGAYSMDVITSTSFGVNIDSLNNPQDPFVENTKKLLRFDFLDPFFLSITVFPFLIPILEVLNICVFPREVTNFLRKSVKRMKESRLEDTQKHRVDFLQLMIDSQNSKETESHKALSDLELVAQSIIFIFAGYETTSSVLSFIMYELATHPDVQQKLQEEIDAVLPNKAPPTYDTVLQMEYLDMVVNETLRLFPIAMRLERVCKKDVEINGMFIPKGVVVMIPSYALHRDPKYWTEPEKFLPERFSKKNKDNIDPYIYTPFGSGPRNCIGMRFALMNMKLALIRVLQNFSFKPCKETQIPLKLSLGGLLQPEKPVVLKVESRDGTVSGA

O=C(Nc1ccc2c(O)cc(S(=O)(=O)Nc3cccc(S(=O)(=O)O)c3)cc2c1)Nc1ccc2c(O)cc(S(=O)(=O)Nc3cccc(S(=O)(=O)O)c3)cc2c1 [Compound 15, 3-{[(4-hydroxy-7-{[N-(5-hydroxy-7-{[(3-sulfophenyl)amino]sulfonyl}(2-naphthyl))carbamoyl]amino}-2-naphthyl)sulfonyl]amino}benzenesulfonic acid]
% Activity vs. Control [1]: 125% | phosphorylation of the PDGF receptor [2]: not to increase the phosphorylation | blood glucose levels in db/db mice (db/db mouse): acts in an insulin-independent manner to lower blood glucose levels | decrease in blood glucose levels (ob/ob mouse): 13% | decrease in plasma insulin levels (ob/ob mouse): 42% | decrease in plasma triglyceride levels (ob/ob mouse): 15% | phosphorylation of the insulin receptor in muscle (insulin receptor): produced an increase in phosphorylation of the insulin receptor | acute toxicity (male db/db mice): No acute toxicity was seen | inhibition of catalytic activity of CYP3A4 (CYP3A4): did not inhibit
